ChEMBL document CHEMBL1201862, “PubChem BioAssay data set” (2004)
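How tested: cells in 96-well plates exposed to compound for 48 hours at five concentrations. GI50 = concentration required for 50% inhibition of growth.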 The source made the active and inactive calls. Rule as the data show it: active = GI50 up to about 1.1 µM and inactive = higher.

Experiments:
Experiment in all cases: NCI-60 cell line screen, 48 h
[1] = test system: Hs-578T
[2] = test system: KM-20L2
[3] = test system: M19-MEL
[4] = test system: DMS-273
[5] = test system: RXF 631
[6] = test system: DMS-114
[7] = test system: LXFL 529
[8] = test system: SNB-78
[9] = test system: XF498

With CN(C)/C=N/S(=O)(=O)c1nn2c(C=O)c(-c3ccc([N+](=O)[O-])cc3)nc2s1 as the compound, how does the GI50 [1] read?
Its GI50 is 24.5 µM (inactive).

How did the GI50 [1] turn out when N#Cc1sc2c(c1O)c(=O)n(-c1ccccc1)c(=S)n2-c1ccccc1 was run?
Its GI50 is > 100 µM (inactive).

How did the GI50 [1] turn out when COc1cc(C(c2cc(OC)c(OC)c(OC)c2)N2C(=O)CCC2C(=O)O)cc(OC)c1OC (stereo not given) was run?
Its GI50 is > 100 µM (inactive).

Which GI50 [1] does the source give for COC(=O)c1ccc2c(c1)CC1(C2)Cc2ccccc2C1=O (stereo not given) here?
The GI50 was 69.7 µM (inactive).

For C=CC(=O)C#Cc1cnc(OC)nc1OC, which GI50 [1] is on record?
The GI50 was 33.3 µM (inactive).

COc1cccc2c1C(=O)c1c(O)c3c(c(O)c1C2=O)C[C@@](O)(C(=O)CO)CC3OC1CC(NCCCC(OC(C)=O)OC(C)=O)C(O)C(C)O1 (stereo not given in full) was tested. Which GI50 [2] did it give?
Its GI50 is 0.000912 µM (active).

What about the GI50 [3] of the same compound?
Its GI50 is 0.00261 µM (active).

And the GI50 [4]?
The GI50 was < 0.0001 µM (active).

And the GI50 [5]?
Its GI50 is < 0.0001 µM (active).

What about the GI50 [6] of the same compound?
The GI50 was 0.00703 µM (active).

And the GI50 [7]?
The GI50 was 0.00262 µM (active).

And the GI50 [8]?
Its GI50 is 0.00224 µM (active).

What about the GI50 [9] of the same compound?
The GI50 was 0.00183 µM (active).

With CCCCc1ccc(Nc2nc(S)c3ncn(COCCO)c3n2)cc1 as the compound, how does the GI50 [1] read?
Its GI50 is 36.3 µM (inactive).

COc1ccc2c(C)cc(N/N=C/c3ccc(OC)c4ccccc34)nc2c1 was tested. Which GI50 [1] did it give?
The GI50 was 15.7 µM (inactive).

For CN1Cc2ccccc2C2(COc3ccccc3C2=O)C1 (stereo not given), which GI50 [2] is on record?
Its GI50 is > 100 µM (inactive).

What about the GI50 [3] of the same compound?
Its GI50 is > 100 µM (inactive).

And the GI50 [4]?
The GI50 was > 100 µM (inactive).

And the GI50 [6]?
The GI50 was > 100 µM (inactive).

What about the GI50 [7] of the same compound?
Its GI50 is 76.6 µM (inactive).

What about the GI50 [8] of the same compound?
The GI50 was > 100 µM (inactive).

With O=C1CCCC/C1=C\c1ccc(Cl)c(Cl)c1 as the compound, how does the GI50 [2] read?
Its GI50 is 20.7 µM (inactive).

And the GI50 [3]?
Its GI50 is 20.7 µM (inactive).

And the GI50 [4]?
Its GI50 is 20 µM (inactive).

And the GI50 [6]?
The GI50 was 18.7 µM (inactive).

What about the GI50 [7] of the same compound?
The GI50 was 17.1 µM (inactive).

What about the GI50 [8] of the same compound?
Its GI50 is 19.1 µM (inactive).

CC1=C(Cl)C=CP(=O)(Oc2ccccc2)C1 (stereo not given) was tested. Which GI50 [2] did it give?
The GI50 was > 100 µM (inactive).

And the GI50 [4]?
Its GI50 is 27.5 µM (inactive).

And the GI50 [6]?
Its GI50 is 25.4 µM (inactive).

And the GI50 [7]?
Its GI50 is 15.3 µM (inactive).

And the GI50 [8]?
Its GI50 is 41.1 µM (inactive).

And the GI50 [9]?
Its GI50 is 57.7 µM (inactive).

Which GI50 [1] does the source give for CC(=O)Oc1c(C)c2c(c3ccccc13)OC(C)(C)C2 here?
Its GI50 is 21 µM (inactive).

With NC1=NC(c2ccccc2)CC(c2cc(Cl)cc(Br)c2O)=N1 (stereo not given) as the compound, how does the GI50 [2] read?
The GI50 was 15.7 µM (inactive).

And the GI50 [3]?
Its GI50 is 12.8 µM (inactive).

And the GI50 [4]?
Its GI50 is 7.55 µM (inactive).

And the GI50 [5]?
The GI50 was 17.5 µM (inactive).

What about the GI50 [6] of the same compound?
Its GI50 is 8.69 µM (inactive).

What about the GI50 [7] of the same compound?
The GI50 was 16.7 µM (inactive).

What about the GI50 [8] of the same compound?
The GI50 was 17.2 µM (inactive).

What about the GI50 [9] of the same compound?
The GI50 was 13.7 µM (inactive).

With C=CCOC(=O)c1c(C)[n+]([O-])c2cc(Cl)c(Cl)cc2[n+]1[O-] as the compound, how does the GI50 [1] read?
Its GI50 is 27.5 µM (inactive).

C[C@H](CCC(=O)O)[C@H]1CC[C@H]2[C@@H]3[C@@H](O)C[C@@H]4C[C@H](O)CC[C@]4(C)[C@H]3C[C@H](O)[C@]12C was tested. Which GI50 [1] did it give?
Its GI50 is 16.4 µM (inactive).

With COc1cc(/C=C/C(=O)OCC23CC[C@@]4(C(=O)O)CCC(C)[C@H](C)C4C2=CCC2[C@@]4(C)CC[C@H](O)C(C)(C)C4CC[C@]23C)ccc1O (stereo not given in full) as the compound, how does the GI50 [1] read?
Its GI50 is 4.66 µM (inactive).

Which GI50 [1] does the source give for Cc1cc(Nc2ccc(S(=O)(=O)O)c3cc(S(=O)(=O)O)cc(S(=O)(=O)O)c23)c2ccccc2n1 here?
Its GI50 is > 100 µM (inactive).

For C/C(Cc1ccc2c(c1)OCO2)=N\N=c1\sc2ccccc2n1C, which GI50 [1] is on record?
Its GI50 is > 100 µM (inactive).

What does the source list for C[C@]12CCc3nonc3C1CC[C@@H]1C2CC[C@]2(C)C(=O)CCC12 (stereo not given in full)?
GI50 [2]: 26.5 µM (inactive); GI50 [3]: 25.8 µM (inactive); GI50 [4]: 20.7 µM (inactive); GI50 [5]: 57.8 µM (inactive); GI50 [6]: 22.4 µM (inactive); GI50 [7]: 35.9 µM (inactive); GI50 [8]: 59.6 µM (inactive); GI50 [9]: 17.5 µM (inactive)

How did the GI50 [1] turn out when Cc1ccnc2nc(-c3ccc(F)cc3)cc(O)c12 was run?
Its GI50 is 72.4 µM (inactive).

O=C(c1ccccc1)c1c(CC(O)c2ccncc2)n(C(=O)c2ccccc2)c2ccccc12 (stereo not given) was tested. Which GI50 [2] did it give?
The GI50 was 17.7 µM (inactive).

What about the GI50 [3] of the same compound?
The GI50 was 17.9 µM (inactive).

What about the GI50 [4] of the same compound?
Its GI50 is 17.9 µM (inactive).

And the GI50 [6]?
The GI50 was 16.9 µM (inactive).

What about the GI50 [7] of the same compound?
The GI50 was 18.8 µM (inactive).

What does the source list for COc1cc(OC)c2c(O)cc(CC(C)O)cc2c1 (stereo not given)?
GI50 [2]: > 100 µM (inactive); GI50 [3]: > 100 µM (inactive); GI50 [4]: > 100 µM (inactive); GI50 [5]: > 100 µM (inactive); GI50 [6]: > 100 µM (inactive); GI50 [7]: > 100 µM (inactive); GI50 [8]: > 100 µM (inactive); GI50 [9]: > 100 µM (inactive)

N#C[BH2-][n+]1cn(C2CC(OP(=O)(O)OCC3OC(n4ccc(N)nc4=O)CC3O)C(CO)O2)c2nc(N)[nH]c(=O)c21 (stereo not given) was tested. Which GI50 [1] did it give?
Its GI50 is > 100 µM (inactive).

With C/C(=N/NC(=S)Nc1ccccc1C)c1ccccn1 as the compound, how does the GI50 [1] read?
The GI50 was 15.7 µM (inactive).

With Cn1c(=O)oc2cc(C(=S)N3CCCCC3)ccc21 as the compound, how does the GI50 [1] read?
Its GI50 is > 100 µM (inactive).

COc1ccc(/C=C\c2cc(OC)c(OC)c(OC)c2)c(O)c1O [COMBRETASTATIN A-1] was tested. Which GI50 [2] did it give?
The GI50 was 8.93 µM (inactive).

And the GI50 [3]?
The GI50 was 0.33 µM (active).

What about the GI50 [4] of the same compound?
The GI50 was 0.05 µM (active).

What about the GI50 [6] of the same compound?
Its GI50 is 0.104 µM (active).

And the GI50 [1]?
Its GI50 is < 0.01 µM (active).

What about the GI50 [7] of the same compound?
The GI50 was 0.611 µM (active).

And the GI50 [8]?
Its GI50 is 0.0953 µM (active).

What about the GI50 [9] of the same compound?
The GI50 was 0.0551 µM (active).

COc1ccc(Cc2nc3cc(C(F)(F)F)ccc3n2CCCN(C)C)cc1 was tested. Which GI50 [1] did it give?
Its GI50 is 17.5 µM (inactive).

With c1ccc2c(c1)nc1n2CNCC1 as the compound, how does the GI50 [1] read?
Its GI50 is > 100 µM (inactive).

What does the source list for CN1CCCS/C1=C1/SC(=S)N(c2ccccc2)C1=O?
GI50 [2]: > 100 µM (inactive); GI50 [3]: > 100 µM (inactive); GI50 [4]: > 100 µM (inactive); GI50 [5]: > 100 µM (inactive); GI50 [6]: > 100 µM (inactive); GI50 [7]: > 100 µM (inactive); GI50 [8]: > 100 µM (inactive); GI50 [9]: > 100 µM (inactive)
